{
  "source": "patent US20230017266A1",
  "about": "“Cyclooxygenase-2 Inhibition for the Treatment of SAA-high Asthma” (THE USA, AS REPRESENTED BY THE SECRETARY, DEPT. OF HEALTH …, priority 2019, published 2023)",
  "key": {"[1]": {"tested_on": "CD14^+ monocytes", "assay": "HDL+SAA1-induced cytokine secretion by ex vivo CD14+ monocytes (ELISA)", "format": "cell-based, human", "conditions": "for HDL+SAA1-mediated increases in cytokine secretion: 24 h", "experimental": "Isolation of Peripheral Blood Monocytes. Peripheral blood monocytes were isolated using a two-step process. Peripheral blood was diluted with PBS at a 1:1 ratio, slowly overlaid onto 30 ml of Lymphoprep™ (catalog #07811, StemCell Technologies, Vancouver Canada) in a 50 ml conical tube, and centrifuged at 400×g for 25 min without braking. The peripheral blood mononuclear cell (PBMC) layer was carefully transferred to another 50 ml conical tube, washed with PBS, followed by two washes with FACS buffer (0.5 mM EDTA, 1% BSA, and 1% mouse serum in PBS). Monocytes subsets were identified and sorted by flow cytometry using the following antibodies: PE mouse anti-human CD45 clone HI30 (catalog #555483), BV421 mouse anti-human CD14 clone MφP9 (catalog #563743), and FITC mouse anti-human CD16 clone B73.1 (catalog #561308), and a FACS ARIA Fusion sorter equipped with 355, 407, 488, 532 and 640 nm LASER lines using FACS DIVA 8.0 software (all from BD Biosciences, San Jose, Calif.). The gating strategy identified a population of debris-free, single, live, ^SSCmoderate/high, CD45^+ cells from which CD14^+/CD16^− (classical), CD14^+/CD16^+ (intermediate), CD14^dim/CD16^+ (non-classical), and CD14^+ (classical and intermediate) cells were sorted and utilized for experiments, as indicated (Supplemental FIG. 4).\nHDL+SAA1 Stimulation of Peripheral Blood Monocytes Subsets. […] As previously described, normal HDL was isolated from plasma obtained from healthy subjects by sequential KBr differential gradient ultracentrifugation at 330,000 g and extensive dialysis with 50 mM HEPES, 50 mM NaCL, 5 mM MgCl2 and 2 mM CaCl2, pH 7.0, at 4° C. Normal HDL was complexed with recombinant human serum amyloid A-1 at a 2:1 ratio by mixing and incubated at RT overnight to generate HDL+SAA1, which was filtered using a 100-kDa exclusion filter (Amicon Ultra Centrifuge Filters, Millipore, Darmstadt, Germany) to remove any uncomplexed SAA1. Normal HDL was also complexed with the amount of lipopolysaccharide (catalog # L4391, E. coli 0111:B4, y-irradiated, MilliporeSigma, St. Louis, Mo.) present in recombinant human SAA1. Additionally, classical CD14^+ monocytes were treated with the P2X7R antagonist, A438079, the IKK inhibitor, BAY-11-7082, the IKKβ (IKK-2) inhibitor, TPCA-1, or the selective COX-2 inhibitor, celexocib, all from MilliporeSigma(St. Louis, Mo.). Cells were also treated with the FPR2 antagonist, WRW4, or diclofenac from Tocris (Minneapolis, Minn.). The amount of IL-1β, IL-6, TNF-α and IL-10 secreted into cell culture supernatants was quantified using human DuoSet ELISA kits (R&D Systems) and data were acquired using a SpectraMax M2 spectrophotometer (Molecular Devices, San Jose, Calif.). Western blotting, as previously described^43, was performed using antibodies directed against COX-1 (catalog #160110) and COX-2 (catalog #160112), both from Cayman Chemical (Ann Arbor, Mich.). Equivalency of protein loading was established using an antibody directed against GAPDH (catalog #MAB5718) from R&D Systems (Minneapolis, Minn.). Western blots images were captured using an iBright FL1000 Western Blot Imaging System (ThermoFisher Scientific, Waltham, Mass.) and quantified using NIH ImageJ software (imagej.nih.gov). […]"}, "[2]": {"tested_on": "PTGS2 mRNA", "assay": "PTGS2 mRNA levels in CD14+ monocytes cultured with HDL+SAA1 (qRT-PCR)", "format": "cell-based, human", "conditions": "24 h", "experimental": "Quantitative RT-PCR (qRT-PCR). Total RNA was purified using the Direct-Zol™ RNA MiniPrep kit and total RNA (100 ng) was reverse transcribed into cDNA using the High-Capacity cDNA Reverse Transcription Kit (Applied Biosystems, Foster City, Calif.). Polymerase chain reactions (PCR) were performed on duplicate cDNA samples using TaqMan Universal PCR Master Mix, FAM-MGB dye-labeled Taqman® PTGS2 probe (Assay ID Hs00153133_m1, catalog #4331182), and a 7900 Real Time PCR System running Sequence Detector version 2.4 software, all from Applied Biosystems (Foster City, Calif.). Gene expression was quantified relative to expression of 18S rRNA using the control sample as a calibrator to calculate the difference in Ct values (ΔΔCt) and presented as relative mRNA expression. For quantification of miR-155-5p expression, miRNA present in total RNA (10 ng) was converted to cDNA using the microRNA cDNA Reverse Transcription kit (Applied Biosystems, Foster City, Calif.). Polymerase chain reaction (PCR) was performed on duplicate cDNA samples using TaqMan Universal PCR Master Mix, Taqman® MicroRNA Assay for has-miR-155-5p (Assay ID #002623, catalog #4427975), and a 7900HT Fast Real-Time PCR System running Sequence Detector version 2.4 software (ThermoFisher Scientific, Waltham, Mass.). miR-155-5p expression was quantified relative to expression of U6 snRNA using the control sample as calibrator to calculate the difference in Ct values (ΔΔCt) and presented as relative mRNA expression.\nmiR-155 Inhibition. CD14+ monocytes were suspended in 4D human monocyte Nucleofector™ solution (Amaxa™ P3 Primary Cell 4D-Nucleofector™ X kit, catalog #V4XP-3024, Lonza, Walkersville, Md.) to a final concentration of 2×10^6 cells/100 […] at room temperature. […] CD14^+ monocytes were plated at a density of 4×10^4 cells/well in a 96-well plate to collect culture media for cytokine quantification and the remaining cells were plated in a 24-well plate to isolate total RNA for qRT-PCR. After 72 h, cytokine secretion was quantified by ELISA and mRNA levels were quantified by qRT-PCR."}, "[3]": {"conditions": "A438079 10 μM, pre-treated 1 h, HDL+SAA1 24 h"}},
  "data": [
    {"smiles": "NC(=O)Nc1sc(-c2ccc(F)cc2)cc1C(N)=O", "note": "[TPCA1]", "values": [
      {"measurement": "HDL+SAA1-mediated increases in cytokine secretion", "setting": "[1]; TPCA-1 1 μM", "value": "prevented"},
      {"measurement": "HDL+SAA1-mediated increases in PTGS2 mRNA", "setting": "[2]; TPCA-1 1 μM", "value": "prevented"}
    ]},
    {"smiles": "Clc1cccc(-c2nnnn2Cc2cccnc2)c1Cl", "note": "[A438079]", "values": [
      {"measurement": "HDL+SAA1-mediated secretion of IL-1β", "setting": "[1]; [3]", "value": "significantly reduced"},
      {"measurement": "HDL+SAA1-mediated secretion of IL-6", "setting": "[1]; [3]", "value": "significantly reduced"},
      {"measurement": "HDL+SAA1-mediated secretion of IL-10", "setting": "[1]; [3]", "value": "significantly reduced"},
      {"measurement": "HDL+SAA1-mediated secretion of TNF-α", "setting": "[1]; [3]", "value": "significantly reduced"},
      {"measurement": "HDL+SAA1-mediated increases in PTGS2 mRNA", "setting": "[2]; A438079 10 μM", "value": "attenuated"}
    ]},
    {"smiles": "Cc1ccc(S(=O)(=O)/C=C/C#N)cc1", "note": "[BAY 11-7082]", "values": [
      {"measurement": "HDL+SAA1-mediated increases in cytokine secretion", "setting": "[1]; BAY-11-7082 10 μM", "value": "prevented"},
      {"measurement": "HDL+SAA1-mediated increases in PTGS2 mRNA", "setting": "[2]; BAY-11-7082 10 μM", "value": "prevented"}
    ]}
  ]
}
